Laboratory results from US20260014147A1, “STAT6 DEGRADERS” (Gilead Sciences, Inc., priority 2024, published 2026).

target: T1, STAT6 (endogenous, HiBiT-tagged) in HeLa LgBiT clone 4.14 cells (Homo sapiens, UniProt P42226); assay: STAT6 Degrader Assay (HiBiT based, HeLa LgBiT clone 4.14 cells, luminescence, DC50); format: cell-based; details: DC50 provided for test compounds with >80% Emax, geometric mean, read-out: STAT6 degradation DC50
T1 construct: These cells express endogenous STAT6; host or cells: HeLa LgBiT clone 4.14
T1 sequence (P42226 1-847): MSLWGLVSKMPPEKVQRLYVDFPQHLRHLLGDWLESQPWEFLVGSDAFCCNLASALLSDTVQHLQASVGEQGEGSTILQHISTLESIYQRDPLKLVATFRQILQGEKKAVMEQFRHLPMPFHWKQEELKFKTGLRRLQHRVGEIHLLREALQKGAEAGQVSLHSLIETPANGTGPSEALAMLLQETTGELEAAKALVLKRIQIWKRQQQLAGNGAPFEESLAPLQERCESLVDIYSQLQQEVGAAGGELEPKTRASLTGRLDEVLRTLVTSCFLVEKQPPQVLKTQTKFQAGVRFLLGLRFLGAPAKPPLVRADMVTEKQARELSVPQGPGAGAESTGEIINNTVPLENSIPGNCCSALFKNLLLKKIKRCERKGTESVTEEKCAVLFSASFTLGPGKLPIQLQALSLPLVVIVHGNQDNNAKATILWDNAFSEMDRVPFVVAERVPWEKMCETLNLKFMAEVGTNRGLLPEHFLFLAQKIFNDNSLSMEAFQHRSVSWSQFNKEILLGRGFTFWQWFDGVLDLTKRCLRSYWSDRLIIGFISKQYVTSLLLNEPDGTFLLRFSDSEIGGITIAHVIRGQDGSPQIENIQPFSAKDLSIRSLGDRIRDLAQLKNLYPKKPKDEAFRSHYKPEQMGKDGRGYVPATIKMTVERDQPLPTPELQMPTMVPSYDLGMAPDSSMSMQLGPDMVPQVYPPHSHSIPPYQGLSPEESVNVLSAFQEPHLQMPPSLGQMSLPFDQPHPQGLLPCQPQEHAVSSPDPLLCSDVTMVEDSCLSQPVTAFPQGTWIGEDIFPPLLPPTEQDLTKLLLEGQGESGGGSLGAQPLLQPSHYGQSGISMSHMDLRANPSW
Procedure: This was a HiBit based assay. A HeLa cell line stably transfected with a small protein, LgBit (Large Bit) was obtained from Promega. These cells express endogenous STAT6. A small 11 amino acid gene sequence (HiBiT) was inserted in the STAT6 gene using CRISPR technology. Once STAT6 protein is expressed in the cells, the HiBiT sequence will bind the LgBit in the cells resulting in a functional NanoBiT protein, giving a luminescent tag to STAT6. Single cell clones were prepared and the clone 4.14 was selected for the assay based on that clone showing high luminescence, high STAT6 phosphorylation upon stimulation with IL-4, and inhibition of luminescence when cells were treated with STAT6 siRNA. HeLa LgBiT clone 4.14 cells were suspended in DMEM with 10% FCS, 1% Pen/Strep, Na-pyrovate and Hygromycin B, at a concentration of […]. 5000 cells were added pr well of a 384 well plate and 20 nL of compound was added by Echo® liquid handler. NN6394A (terfenadine, a toxic compound) was added to control wells at 50 µM concentration to establish the assay window. In these wells the cells are dead which equals 100% degradation of STAT6. After 4-24 h of incubation at 37° C. under 5% CO2/95% air, […] substrate (Nano-GLO®) was added to the wells and the plates were centrifuged and incubated for 0.5 h. The luminescence in the wells as a measure of non-degraded STAT6 was measured in a plate reader (BMG Pherastar FSX). The dose-response curves for Examples 2a2, 2t1, 2 h3, and 2r1 are shown below (where percent degradation is plotted vs. test compound concentration in M on a log-scale).

Structure (SMILES) | DC50
CNc1ccc(-c2ccnc3c2cc([C@H](C)N2CCC(c4ccc(C(=O)N5CCn6nc(CN7CCC(c8ccc(NC9CCC(=O)NC9=O)cc8F)CC7)cc6C5)cc4)CC2)n3C)cn1 (mixture of isomers) [Example 2c41, 3-((3-fluoro-4-(1-((5-(4-(1-((S)-1-(1-methyl-4-(6-(methylamino)pyridin-3-yl)-1H-pyrrolo[2,3-b]pyridin-2-yl)ethyl)piperidin-4-yl)benzoyl)-4,5,6,7-tetrahydropyrazolo[1,5-a]pyrazin-2-yl)methyl)piperidin-4-yl)phenyl)amino)piperidine-2,6-dione] | 3.3 nM
Cn1c(CN2CCC(c3ccc(C(=O)N4CCC(CN5CCC(N6CCC(c7ccc(NC8CCC(=O)NC8=O)cc7F)CC6)C(F)(F)C5)CC4)cc3)CC2)cc2c(-c3ccc(N)nc3)ccnc21 (stereo not shown) [Example 2h2, 3-((4-(1′-((1-(4-(1-((4-(6-aminopyridin-3-yl)-1-methyl-1H-pyrrolo[2,3-b]pyridin-2-yl)-methyl)piperidin-4-yl)benzoyl)piperidin-4-yl)methyl)-3′, 3′-difluoro-[1,4′-bipiperidin]-4-yl)-3-fluoro-phenyl)amino)piperidine-2,6-dione] | 133 nM
CNc1ccc(-c2ccnc3c2cc([C@H](C)N2CCC(c4ccc(C(=O)N5CCC(CN6CCN(c7ncc(NC8CCC(=O)NC8=O)cc7F)CC6)CC5)cc4)CC2)n3C)cn1 (stereo partly drawn) [Example 2n13, 3-((5-fluoro-6-(4-((1-(4-(1-((S)-1-(1-methyl-4-(6-(methylamino)pyridin-3-yl)-1H-pyrrolo[2,3-b]pyridin-2-yl)ethyl)piperidin-4-yl)benzoyl)piperidin-4-yl)methyl)-piperazin-1-yl)pyridin-3-yl)amino)piperidine-2,6-dione] | 30 nM
C[C@@H](c1cc2c(-c3ccc4[nH]ncc4c3)ccnc2n1C)N1CCC(c2ccc(C(=O)N3CCC(CN4CCN(c5ncc(NC6CCC(=O)NC6=O)cc5F)CC4)CC3)cc2)CC1 (stereo partly drawn) [Example 2n8, 3-((6-(4-((1-(4-(1-((S)-1-(4-(1H-indazol-5-yl)-1-methyl-1H-pyrrolo[2,3-b]pyridin-2-yl)ethyl)-piperidin-4-yl)benzoyl)piperidin-4-yl)methyl)piperazin-1-yl)-5-fluoropyridin-3-yl)amino)piperidine-2,6-dione] | 6.5 nM

Continued, values first:

DC50 | Structure (SMILES)
22.5 nM | Cn1c(CN2CCC(c3ccc(C(=O)N4CCC(CN5CCN(c6ccc(NC7CCC(=O)NC7=O)cc6F)CC5)CC4)cc3)CC2)cc2c(-c3ccc4[nH]ncc4c3)ccnc21 (single isomer, unassigned) [Example 2c6]
28.6 nM | Cn1c(CN2CCC(c3ccc(C(=O)N4CCC(CN5CCN(c6ccc(NC7CCC(=O)NC7=O)c(F)n6)CC5)CC4)cc3)CC2)cc2c(-c3ccc4[nH]ncc4c3)ccnc21 (stereo not shown) [Example 2n2, 3-((6-(4-((1-(4-(1-((4-(1H-indazol-5-yl)-1-methyl-1H-pyrrolo[2,3-b]pyridin-2-yl)methyl)-piperidin-4-yl)benzoyl)piperidin-4-yl)methyl)piperazin-1-yl)-2-fluoropyridin-3-yl)amino)piperidine-2,6-dione]
19.2 nM | Cn1c(CN2CCC(c3ccc(C(=O)N4CCC(CN5CCN(c6ccc(NC7CCC(=O)NC7=O)cc6)CC5)CC4)cc3)CC2)cc2c(-c3ccc4[nH]ncc4c3)ccnc21 (stereo not shown) [Example 2b1, 3-((4-(4-((1-(4-(1-((4-(1H-indazol-5-yl)-1-methyl-1H-pyrrolo[2,3-b]pyridin-2-yl)methyl)piperidin-4-yl)benzoyl)piperidin-4-yl)methyl)piperazin-1-yl)phenyl)amino)piperidine-2,6-dione]

same assay, conditions: Emax provided for test compounds with <80% Emax (and 2c15), geometric mean, read-out: STAT6 degradation Emax

Structure (SMILES) | Emax
CNc1ccc(-c2ccnc3c2cc([C@@H](C)N2CC=C(c4c(C)cc(C(=O)N5CCC(CCn6cc(-c7ccc(NC8CCC(=O)NC8=O)cc7)nn6)CC5)cc4F)CC2)n3C)cn1 (stereo partly drawn) [Example 2c57, 3-((4-(1-(2-(1-(3-fluoro-5-methyl-4-(1-((R)-1-(1-methyl-4-(6-(methylamino)pyridin-3-yl)-1H-pyrrolo[2,3-b]pyridin-2-yl)ethyl)-1,2,3,6-tetrahydropyridin-4-yl)benzoyl)piperidin-4-yl)ethyl)-1H-1,2,3-triazol-4-yl)phenyl)amino)piperidine-2,6-dione] | < 20%
C[C@@H](c1cc2c(-c3ccc(N)nc3)ccnc2n1C)N1CCC(c2ccc(C(=O)N3CCC(CN4CCN(c5ccc(NC6CCC(=O)NC6=O)cc5Cl)CC4)CC3)cc2)CC1 (stereo partly drawn) [Example 2i6, 3-((4-(4-((1-(4-(1-((S)-1-(4-(6-aminopyridin-3-yl)-1-methyl-1H-pyrrolo[2,3-b]pyridin-2-yl)-ethyl)piperidin-4-yl)benzoyl)piperidin-4-yl)methyl)piperazin-1-yl)-3-chlorophenyl)amino)piperidine-2,6-dione] | 70 to 80%
CN(C(=O)c1ccc(C2CCN(Cc3cc4c(-c5ccc6[nH]ncc6c5)ccnc4n3C)CC2)cc1)c1ccc(C2CCN(c3ccc(NC4CCC(=O)NC4=O)cc3)CC2)cc1 (stereo not shown) [Example 2j2, 4-(1-((4-(1H-indazol-5-yl)-1-methyl-1H-pyrrolo[2,3-b]pyridin-2-yl)methyl)piperidin-4-yl)-N-(4-(1-(4-((2,6-dioxopiperidin-3-yl)amino)phenyl)piperidin-4-yl)phenyl)-N-methylbenzamide] | 40 to 50%
CNc1ccc(-c2ccnc3c2cc([C@H](C)N2CCC(c4ccc(C(=O)N5CCC(CN6CCN(c7ncc(NC8CCC(=O)NC8=O)cc7F)CC6)CC5)cc4)CC2)n3C)cn1 (stereo partly drawn) [Example 2n13, 3-((5-fluoro-6-(4-((1-(4-(1-((S)-1-(1-methyl-4-(6-(methylamino)pyridin-3-yl)-1H-pyrrolo[2,3-b]pyridin-2-yl)ethyl)piperidin-4-yl)benzoyl)piperidin-4-yl)methyl)-piperazin-1-yl)pyridin-3-yl)amino)piperidine-2,6-dione] | 79.3%
Cn1c(CN2CC=C(c3ccc(C(=O)N4CCn5nc(CN6CCC(c7ccc(NC8CCC(=O)NC8=O)cc7F)CC6)cc5C4)cn3)CC2)cc2c(-c3ccc(N)nc3)ccnc21 (stereo not shown) [Example 2c37, 3-((4-(1-((5-(1′-((4-(6-aminopyridin-3-yl)-1-methyl-1H-pyrrolo[2,3-b]pyridin-2-yl)methyl)-1′, 2′, 3′, 6′-tetrahydro-[2,4′-bipyridine]-5-carbonyl)-4,5,6,7-tetrahydropyrazolo[1,5-a]pyrazin-2-yl)methyl)piperidin-4-yl)-3-fluorophenyl)amino)piperidine-2,6-dione] | < 20%

Second part, the compound after the results:

Emax | Structure (SMILES)
70 to 80% | Cn1c(CN2CCC(c3ccc(C(=O)N4CCC(CN5CCN(c6ccc(NC7CCC(=O)NC7=O)c(F)n6)CC5)CC4)cc3)CC2)cc2c(-c3ccc(N)nc3)ccnc21 (stereo not shown) [Example 2n4, 3-((6-(4-((1-(4-(1-((4-(6-aminopyridin-3-yl)-1-methyl-1H-pyrrolo[2,3-b]pyridin-2-yl)methyl)-piperidin-4-yl)benzoyl)piperidin-4-yl)methyl)piperazin-1-yl)-2-fluoropyridin-3-yl)amino)piperidine-2,6-dione]
< 20% | Cn1c(CN2CCC(c3ccc(C(=O)N4CCC(CN5CCN(C(=O)c6ccccc6NC6CCC(=O)NC6=O)CC5)CC4)cc3)CC2)cc2c(-c3ccc4[nH]ncc4c3)ccnc21 (stereo not shown) [Example 2t2, 3-((2-(4-((1-(4-(1-((4-(1H-indazol-5-yl)-1-methyl-1H-pyrrolo[2,3-b]pyridin-2-yl)methyl)-piperidin-4-yl)benzoyl)piperidin-4-yl)methyl)piperazine-1-carbonyl)phenyl)amino)piperidine-2,6-dione]
70 to 80% | Cn1c(CN2CCC(c3ccc(C(=O)N4CCC(CN5CCN(c6ccc(N[C@H]7CCC(=O)NC7=O)cc6F)CC5)CC4)cc3)CC2)cc2c(-c3ccc4[nH]ncc4c3)ccnc21 (single isomer, unassigned) [Example 2c5]
< 20% | Cn1c(CN2CCC(c3ccc(C(=O)N4CCC(CN5CCC(n6ncc7c(NC8CCC(=O)NC8=O)cccc76)CC5)CC4)cc3)CC2)cc2c(-c3ccc4[nH]ncc4c3)ccnc21 (stereo not shown) [Example 2g1, 3-((1-(1-((1-(4-(1-((4-(1H-indazol-5-yl)-1-methyl-1H-pyrrolo[2,3-b]pyridin-2-yl)methyl)-piperidin-4-yl)benzoyl)piperidin-4-yl)methyl)piperidin-4-yl)-1H-indazol-4-yl)amino)piperidine-2,6-dione]
